Test results published in patent US20260000763A1, “Methods of Manufacturing Therapeutic Cells” (The Board of Trustees of the Leland Stanford Junior …, priority 2022, published 2026).
“Also recorded” adds a separate entry of the source.

Experiments:
[1] = tested on: Nalm6-GD2, 143b and CHL255 tumor cell lines; assay: Co-culture of HA CAR T cells with GD2-expressing tumor lines: IncuCyte killing, IL-2 and IFNγ secretion; format: cell-based, human; conditions: for antigen induced IFNγ secretion: Nalm6-GD2 24 hrs, D14 cells, INO in presence or absence of glucose
[2] = tested on: HA CAR T cells; assay: Phenotype of tonically signaling (exhausted) HA CAR T cells expanded in inosine media (flow cytometry, CyTOF); format: cell-based, human; conditions: for CD62L expression / frequency of central memory cells: CD8+ HA-CAR T cells, day 21, INO in presence or absence of glucose
Experimental: A: CD4+vs CD8+ ratio at day 14 post-activation. N-7 donors. P values were determined by paired two-tailed t-tests. […] C: IL-2 and IFNγ secretion at day 14 post-activation. P values were determined by unpaired two-tailed t-tests.
In this example, CAR T cells were cultured in control media until day 4 post activation, followed by continued expansion in regular or inosine-containing media. Phenotype of the cells was assessed by flow cytometry at day 21 post activation. A: Frequency of CD62L+ and CCR7+HA CAR+ T cells in 8 different donors. Representative histograms are shown. B: Relative frequency of central memory (CM), naïve, terminally differentiated (TEMRA) and effector memory (EM) HA CAR T cells. N=8 donors. C: Frequency of CD62L+ and CCR7+CD19.28 CAR+ T cells in 8 different donors. Representative histograms are shown. D: Relative frequency of central memory (CM), naïve, terminally differentiated (TEMRA) and effector memory (EM) CD19.28 CAR T cells. N=8 donors.
N=2-6 donors from independent experiments.
(Top) Dot plots of representative donor shown.
9A: Schematic of the experimental design. […] Graphs represent median expression of indicated markers. […] Representative donor of n=2 donor shown. […] Data are mean+SD from triplicate wells. […] 9K: Schematic of the experimental design. […] Representative donor of n=3 donor shown. […] Representative donor of n=2 donor shown. […] (Top) Dot plots of representative donor shown. […] Representative donor of n=3 donor shown. […] N=2-4 donors from independent experiments. […] N=2-6 donors from independent experiments. […] N=2-4 donors from independent experiments. […] (Top) representative dot plots shown.
Transcriptomic and epigenetic hallmarks of exhaustion occur within 10-12 days in the HA-CAR model. To determine if INO can induce a stem-like phenotype in already exhausted T cells, HA-CAR T cells were exposed to INO on day: 4, 7, 10 and 14 post-activation, analyzing phenotype and function (FIG. 9K).
HA-CAR T cells were cultured from day 4 post-activation in control media containing glucose (11 mM), inosine only at 11 mM (INO), media containing both inosine and glucose at 11 mM or media without glucose or inosine.
To assess whether the observed increase in stemness and functionality is attributable to inosine addition or glucose deprivation, HA-CAR T cells were cultured from day 4 post-activation in control media containing 11 mM glucose (CTR), no glucose and no inosine (starvation condition), 11 mM inosine only (INO), or media containing both inosine and glucose (FIG. 7A). Proliferation was assessed at day 10.

[3] = tested on: Nalm6 leukemia cells; assay: Nalm6 leukemia in NSG mice treated with CD19.28 CAR T cells (in vivo stress test); conditions: 0.2×10^6 CD19.28 CAR T cells IV day 3, manufactured in inosine vs regular media
Experimental: A: NSG mice were injected IV with 1×10^6 Nalm6 leukemia cells at day 0, and then 0.2×10^6 CD19.28 CAR T cells, generated in regular or inosine-supplemented media were given IV on day 3. Tumor progression was monitored using bioluminescent imaging. Scales are normalized for all time points. Data are mean+s.e.m. of n=5 mice per group. […] B: NSG mice were injected IV with 1×10^6 Nalm6-GD2+ leukemia cells at day 0, and then 2×10^6 HA CAR T cells, generated in regular or inosine-containing media were given IV on day 3. Tumor progression was monitored using bioluminescent imaging. Scales are normalized for all time points. Data are mean+s.e.m. of n=5 mice per group. […] C: Overall survival. N=5 mice per group. Survival curves were compared using the log-rank Mantel-Cox test. D: NSG mice were injected intramuscular with 1×10^6 143b tumor cells. 4 days later the mice were injected with 1×10^7 Her2, Her2 grown in INO+ media or mock T cells IV. Tumor growth was monitored by caliper measurements. […] N=3-5 mice per group. Survival curves were compared using the log-rank Mantel-Cox test.
In this example, the in vivo anti-tumor potency of CAR T cells manufactured in the presence or absence of inosine was assessed. […] Three days post tumor injection, mice were evaluated and normalized for engraftment using bioluminescent imaging. […]

[4] = tested on: HA-CAR T cells; assay: Expansion of HA-CAR T cells in media with glucose and/or inosine; inosine dose response; format: cell-based, human
[5] = day 21, inosine supplementation

## O=c1[nH]cnc2c1ncn2[C@@H]1O[C@H](CO)[C@@H](O)[C@H]1O [inosine, Inosine]
[1]; INO added on day 4, 7, 10 or 14, 143b 1:1 E:T from day 15
  cytotoxic function: increased cytotoxic function
[1]
  antigen induced IFNγ secretion: significantly enhanced antigen induced IFNγ secretion
[1]; listed as INO
  antigen induced IFNγ secretion: enhanced antigen induced IFNγ secretion
[1]; serial challenge with Nalm6-GD2 1:1, glucose present or absent during manufacturing
  tumor killing and cytokine secretion after multiple stimulations: enhanced tumor killing and cytokine secretion
[2]
  CD62L expression: significantly enhanced CD62L expression
  frequency of central memory cells: significantly enhanced
[2]; listed as INO
  CD62L expression: enhanced CD62L expression
  frequency of central memory cells: enhanced
[2]; HA CAR T cells in INO+ media vs control, day 14
  frequency of CD8+ cells: increased the frequency of CD8+ cells
[2]; HA CAR T cells in INO+ media, day 21
  expression of memory markers CD62L and CCR7: higher expression
[2]; INO added on day 4, 7, 10 or 14 post-activation, assessed day 21
  frequency of CD8+CD62L+ HA-CAR T cells: increased frequency
[2]; [5]
  frequency of terminally differentiated and effector cells: decreased frequency
  percentage of naïve and central memory HA CAR T cells: elevated percentage
[2]; flow cytometry, CD8+ and CD4+ HA-CAR T cells, day 21
  CD62L levels: higher levels
[3]
  tumor growth (bioluminescent imaging): significantly delayed tumor growth
[4]; 0-11 mM INO in RPMI containing 11 mM glucose, without a plateau
  dose response on diminished proliferation, increased CD62L expression and increased IFNγ production: clear dose dependent effect
[4]; day 4 to day 10, 11 mM INO in presence or absence of 11 mM glucose, listed as INO
  expansion of HA-CAR T cells: diminished expansion; also recorded: significantly reduced expansion
